Read-outs that look alike come from different tables or passages of the source.
Columns and labels:
[1] = test system: S. sobrinus 6715 glucan-binding lectin; experiment: Aggregation of S. sobrinus with high molecular weight dextran T-2000 (standard rate assay); format: cell-based, Streptococcus sobrinus; details: dextran T-10 1 mg/ml or glycogen 2.5 mg/ml before polyphenol oxidase treatment
Procedure: S. sobrinus 6715 was maintained on tryptic soy agar (Difco, Detroit, Mich.) and grown for experiments in Terleckyj's defined medium or tryptic soy broth (TSB) (Difco) pretreated with dextranase (1 mg of enzyme per g dry medium) and invertase (5 mg per g dry medium) for 2 h each in 5% CO2 at 37° C. for 16-18h. Cultures were centrifuged at 12,000×g for 10 min and washed twice with cold phosphate buffered saline (PBS, 20 mM, pH 7.2). Cells were suspended in PBS to an optical density of 0.8 (A540). Cultures grown in TSB were harvested and suspended in PBS and subsequently treated with dextranase for 1 h, followed by washing two times in PBS.
The standard rate assay published by Drake et al. (Drake D. et al. Infect. Immun. 56:1864-1872 (1988)) was used to study the interaction of S. sobrinus 6715 glucan-binding lectin with high molecular weight dextran. Briefly, bacterial suspensions were adjusted to an optical density of 0.75-0.90 in PBS, and 3-ml suspensions were added to test tubes (13×100 mm). Dextran T-2000 was added at a final concentration of 10 1μg/ml and the suspensions were vortexed for 5 sec. Control tubes received PBS. The decrease in optical density was continuously monitored spectrophotometrically for 5 min. Rate constants were obtained from the slopes of first-order plots of ln A/A0 (A=observed optical density; A0 optical density at time zero) versus time in minutes. […]

[2] = test system: type 1-fimbriated and P-fimbriated E. coli; experiment: Growth inhibition of E. coli; format: cell-based; details: ampicillin 1 mg/ml to 0.015 mg/ml; polyphenol oxidase 1128 to 17.5 units/ml; asparaginase 20 to 0.31 units/ml; data not shown
Procedure: Similar and/or art recognized methods were used to monitor the effects of asparaginase on growth of other microbes including two strains of E. coli, S. pyogenes, Klebsiella pneumoniae, Bacillus cereus, and Proteus vulgaris. Both type 1-fimbriated and P-fimbriated E. coli were incubated with polyphenol oxidase, asparaginase, and ampicillin to test the ability of these agents to inhibit the growth of the bacteria.

polyphenol oxidase [3] = experiment: Effect of inhibiting polyphenol oxidase activity on dextran aggregation; format: cell-based; details: for effect on polyphenol oxidase induced inactivation: protease inhibitors added before polyphenol oxidase
Procedure: The standard rate assay published by Drake et al. (Drake D. et al. Infect. Immun. 56:1864-1872 (1988)) was used to study the interaction of S. sobrinus 6715 glucan-binding lectin with high molecular weight dextran. Briefly, bacterial suspensions were adjusted to an optical density of 0.75-0.90 in PBS, and 3-ml suspensions were added to test tubes (13×100 mm). Dextran T-2000 was added at a final concentration of 10 1μg/ml and the suspensions were vortexed for 5 sec. Control tubes received PBS. The decrease in optical density was continuously monitored spectrophotometrically for 5 min. Rate constants were obtained from the slopes of first-order plots of ln A/A0 (A=observed optical density; A0 optical density at time zero) versus time in minutes. Each sample was assayed at least three times.
Cells were suspended in phosphate buffer (20 mM, pH 6.5) and treated with either polyphenol oxidase (Worthington Biochemical Corporation, Freehold N.J., Lot 37A889) (1260 U/ml) for 1 h at 37° C. with rotary shaking (150 rev/min), then washed twice with cold PBS. Inhibitors (all from Sigma), when present, were added before polyphenol oxidase addition at the following concentrations: phenylmethylsulfonyl fluoride (PMSF) 500 μM; leupeptin, 500 μg/ml; ethylenediaminetetracetic acid (EDTA), 5 mM, potassium chloride 200 mM; polyvinylpyrrolidone, 500 μg/m; ascorbic acid, 3 mM; lactic acid, 10%.

[4] = test system: E. coli possessing type 1 fimbriae / Saccharomyces cerevisiae cells; experiment: Adhesion of E. coli to yeast; format: cell-based
Procedure: Materials and methods were generally as described in the previous Examples, but slightly modified for observing adhesion by E. coli to yeast. […] Cells were washed 2× in PBS and suspended in PB. Cells were treated with polyphenol oxidase at 37° C., washed 2×, and resuspended in PBS. E. coli (5×10^8 cells) were incubated with 1×10^5 Saccharomyces cerevisiae cells in a 3 ml volume and rotated with an end-over-end motion at 37° C. for 30 min. Suspensions were harvested, washed 2× in PBS and resuspended in 300 μl PBS. Methyl-α-D-mannose was added to some reaction mixtures. Ten μl samples were withdrawn and placed on a microscope slide, heat-fixed, stained with crystal violet for 2 min, rinsed and dried. Preparations were viewed at 1000× with phase-contrast microscopy. Numbers of bacteria bound to yeast cells were tabulated.

polyphenol oxidase [5] = experiment: Effect of inhibiting polyphenol oxidase activity on dextran aggregation; format: cell-based; details: inhibitor concentration 2.5%
[6] = test system: B. fragilis (adhesin) / A. naeslundii ATCC 12104 (receptor); experiment: Coaggregation B. fragilis / A. naeslundii ATCC 12104; details: B. fragilis (adhesin) enzyme treated; polyphenol oxidase 90 U/ml
Procedure: S. sanguis 10556, A. naeslundii strains 12104 and T14V and E. coli were grown static cultures in Todd-Hewitt broth (BBL Microbiology Systems, Cockeysville, Md.). P. gingivalis W50, A. actinomycetemcomitans and C. ochracea were grown in brain heart infusion broth (BBL). F. nucleatum 22586 and P. intermedia 25611 were grown in modified Schaedler broth (BBL). All oral species except S. sanguis 10556 were incubated at 37° C. as static cultures under an anaerobic atmosphere containing H2, CO2 and N2(10:10:80) with GasPaks (BBL). S. sanguis was incubated at 37° C. as static cultures in 5% CO2.
Bacteria were harvested in the mid to late exponential growth phase by centrifugation (10,000×g for 10 min at 4° C.). The cells were washed twice in coaggregation buffer (30 mM 3-[N-morpholino]propanesulfonic acid (MOPS), pH 7.0) and adjusted to an optical density of 0.6-0.8 at 540 nm (1-cm path). […]
Coaggregation was assessed by turbidity changes. Following mixing of the cells for 10 s on a Vortex mixer, absorbance readings were made every 30 min. The percentage of coaggregation was calculated from the following formula: Percent coaggregation=[OD540(A)+OD540(B)−OD540(A+B)]/(OD540(A)+OD540(B)), where A is the control containing cells of one strain, B is the control containing cells of the other strain, and A+B is the reaction mixture containing both cells. […]

[7] = known polyphenol oxidase inhibitors

Compound: glycogen [reference compound]
- effect of pre-incubating the bacteria with carbohydrate on the polyphenol oxidase inhibition of aggregation [1]: no effect

Compound: CC1(C)S[C@@H]2[C@H](NC(=O)[C@H](N)c3ccccc3)C(=O)N2[C@H]1C(=O)O [ampicillin, reference compound]
- inhibition of growth of P-fimbriated E. coli [2]: inhibited the growth
- inhibition of growth of type 1-fimbriated E. coli [2]: inhibited the growth

Compound: CC(=O)N[C@@H](CC(C)C)C(=O)N[C@@H](CC(C)C)C(=O)N[C@H](C=O)CCCNC(=N)N [leupeptin]
- Percent Inhibition of Polyphenol Oxidase Induced Reduction in Aggregation (polyphenol oxidase [3]; inhibitor concentration 500 μg/ml): 0%
- effect on polyphenol oxidase induced inactivation (polyphenol oxidase [3]): completely inhibited

Compound: O=S(=O)(F)Cc1ccccc1 [PMSF, phenylmethylsulfonyl fluoride]
- Percent Inhibition of Polyphenol Oxidase Induced Reduction in Aggregation (polyphenol oxidase [3]; inhibitor concentration 500 μM): 0%
- effect on polyphenol oxidase induced inactivation (polyphenol oxidase [3]): completely inhibited

Compound: COC1OC(CO)C(O)C(O)C1O [Methyl-α-mannose, Methyl-α-D-mannose]
- effect of preincubating E. coli before polyphenol oxidase treatment [4]: eliminated polyphenol oxidase mediated reduction of adhesion
- attachment of control cells to Saccharomyces ([4]; added to control cells): prevented their attachment

Compound: CC(O)C(=O)O (stereo not drawn) [lactic acid]
- Percent Inhibition of Polyphenol Oxidase Induced Reduction in Aggregation (polyphenol oxidase [3]; inhibitor concentration 10%): 92 (+/−8) Percent
- effect on the effects of polyphenol oxidase on glucan aggregation (polyphenol oxidase [3]; [7]): reduced the effects

Compound: O=C(O)CN(CCN(CC(=O)O)CC(=O)O)CC(=O)O [EDTA, ethylenediaminetetracetic acid]
- Percent Inhibition of Polyphenol Oxidase Induced Reduction in Aggregation (polyphenol oxidase [3]): 100%
- effect on the effects of polyphenol oxidase on glucan aggregation (polyphenol oxidase [3]): reduced the effects

Compound: [Cl-].[K+] [KCl, potassium chloride]
- effect on the effects of polyphenol oxidase on glucan aggregation (polyphenol oxidase [3]; [7]): reduced the effects
- Percent Inhibition of Polyphenol Oxidase Induced Reduction in Aggregation (polyphenol oxidase [5]): 100%

Compound: Per: horseradish peroxidase
- Inhibition % of coaggregation [6]: 11%

Compound: O=C1O[C@H]([C@@H](O)CO)C(O)=C1O [ascorbic acid]
- Percent Inhibition of Polyphenol Oxidase Induced Reduction in Aggregation (polyphenol oxidase [3]; inhibitor concentration 3 mM): 100%
- effect on the effects of polyphenol oxidase on glucan aggregation (polyphenol oxidase [3]; [7]): reduced the effects

From patent publication US20020009436A1, “Methods and compositions for inhibiting adhesion by microorganisms” (priority 1999, published 2002)
